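Exposure lasted 48 hours, with cells grown in 96-well plates and compounds tested at five concentrations. TGI: concentration producing complete growth inhibition.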
Legend:
Assay in all cases: NCI-60 cell line screen, 48 h
786-0 renal = tested on: 786-0 renal
TK-10 renal = tested on: TK-10 renal
HCT-116 colon = tested on: HCT-116 colon
T-47D breast = tested on: T-47D breast
MCF7 breast = tested on: MCF7 breast
U251 CNS = tested on: U251 CNS
SF-539 CNS = tested on: SF-539 CNS
IGROV1 ovarian = tested on: IGROV1 ovarian
SR leukemia = tested on: SR leukemia
HOP-92 NSCLC = tested on: HOP-92 NSCLC
HT29 colon = tested on: HT29 colon
HCC-2998 colon = tested on: HCC-2998 colon
OVCAR-4 ovarian = tested on: OVCAR-4 ovarian
NCI-H226 lung = tested on: NCI-H226 lung
HOP-62 NSCLC = tested on: HOP-62 NSCLC
NCI-H460 lung = tested on: NCI-H460 lung
OVCAR-5 ovarian = tested on: OVCAR-5 ovarian
SF-295 CNS = tested on: SF-295 CNS
OVCAR-3 ovarian = tested on: OVCAR-3 ovarian
HS 578T breast = tested on: HS 578T breast
MDA-MB-231 breast = tested on: MDA-MB-231 breast
MALME-3M melanoma = tested on: MALME-3M melanoma
NCI-H23 lung = tested on: NCI-H23 lung
MDA-N = tested on: MDA-N
SK-MEL-2 melanoma = tested on: SK-MEL-2 melanoma
M14 melanoma = tested on: M14 melanoma
EKVX NSCLC = tested on: EKVX NSCLC
MDA-MB-435 = tested on: MDA-MB-435
SNB-19 CNS = tested on: SNB-19 CNS
PC-3 prostate = tested on: PC-3 prostate
SN12C renal = tested on: SN12C renal
UO-31 renal = tested on: UO-31 renal
COLO 205 colon = tested on: COLO 205 colon
DU-145 prostate = tested on: DU-145 prostate
HCT-15 colon = tested on: HCT-15 colon
LOX IMVI melanoma = tested on: LOX IMVI melanoma
NCI-H522 lung = tested on: NCI-H522 lung
A549 NSCLC = tested on: A549 NSCLC
ACHN renal = tested on: ACHN renal
SF-268 CNS = tested on: SF-268 CNS
BT-549 breast = tested on: BT-549 breast
UACC-257 melanoma = tested on: UACC-257 melanoma
SW-620 colon = tested on: SW-620 colon
SK-MEL-28 melanoma = tested on: SK-MEL-28 melanoma
CCRF-CEM leukemia = tested on: CCRF-CEM leukemia
K-562 leukemia = tested on: K-562 leukemia
CAKI-1 renal = tested on: CAKI-1 renal
KM12 colon = tested on: KM12 colon
HL-60(TB) leukemia = tested on: HL-60(TB) leukemia
MOLT-4 leukemia = tested on: MOLT-4 leukemia
UACC-62 melanoma = tested on: UACC-62 melanoma
RXF 393 renal = tested on: RXF 393 renal
SK-MEL-5 melanoma = tested on: SK-MEL-5 melanoma
RPMI-8226 leukemia = tested on: RPMI-8226 leukemia
SK-OV-3 ovarian = tested on: SK-OV-3 ovarian

Measured: TGI

CSC(SC)=C(C#N)C(=O)Nc1ccc(C)cc1
54.8 µM: HOP-92 NSCLC
> 100 µM: all other assays above

Reference: PubChem BioAssay (NCI)
